The target in one experiment is LSD1 (Homo sapiens (Human), UniProt O60341). Nature of the experiment: LSD1 enzyme activity detection (HTRF). The format is biochemical. Particulars: HTRF, H3K4me1 substrate; read-out: Inhibition of enzymatic activity of LSD1 IC50. (TR-FRET usually uses a lanthanide donor and a delayed reading to cut background.)
In the next experiment the test system is NCI-H1417 cells. The experiment is described as follows: In vitro cell proliferation detection (CellTiter-Glo, 7 days). The class given is cell-based. Particulars: Homo sapiens, 168 h; NCI-H1417 cells, 7 days, CellTiter-Glo; read-out: NCI-H1417 proliferation inhibition IC50.

Structures can show the parent of a compound that is named as a salt.

For `CC(C)(O)C#Cc1ccc(-c2c(O)cc(N3CCC(N)CC3)nc2-c2ccc(C#N)c(F)c2)cc1F` [Example 25, 4-(6-(4-aminopiperidin-1-yl)-3-(3-fluoro-4-(3-hydroxy-3-methyl-1-alkynyl-1-yl)phenyl)-4-hydroxypyridin-2-yl)-2-fluorobenzonitrile hydrochloride], the figures for the IC50 on LSD1 and in the experiment with NCI-H1417 cells were 71.7 nM and 868 nM, respectively.

Consider `Cn1ccc2cc(F)c(-c3c(-c4ccc(C#N)c(F)c4)nc(N4C5CCC4CC(N)C5)n4ccnc34)cc21` (centres unmarked) [Example 174, 4-(5-(3-amino-8-azabicyclo[3.2.1]octane-8-yl)-8-(5-fluoro-1-methyl-1H-indole-6-yl)imidazolo [1,2-c]pyrimidin-7-yl)-2-fluoro benzonitrile], for which the results for the IC50 on LSD1 and in the experiment on NCI-H1417 cells were 13.2 nM and 14.4 nM, respectively.

Consider `COc1ccc(-c2c(O)cc(N3CCC(N)CC3)nc2-c2ccc(C#N)c(F)c2)c(F)c1` [Example 36, 4-(6-(4-aminopiperidin-1-yl)-3-(2-fluoro-4-methoxyphenyl)-4-hydroxypyridin-2-yl)-2-fluorobenzonitrile hydrochloride], for which the IC50 was determined as 35.2 nM on LSD1 and 21.2 nM in the experiment with NCI-H1417 cells.

With `N#Cc1ccc(-c2nc(N3CCC(N)CC3)n3ccnc3c2-c2ccc3[nH]nc(Cl)c3c2)cc1F` [Example 123, 4-(5-(4-aminopiperidin-1-yl)-8-(3-chloro-1H-indazolo-5-yl)imidazolo[1,2-c]pyrimidin-7-yl)-2-fluorobenzonitrile], the IC50 stood at 28.7 nM on LSD1 and 47.6 nM in the experiment with NCI-H1417 cells.

As for `N#Cc1ccc(-c2nc(N3CCC(N)CC3)cc(O)c2-c2ccn3ccnc3c2)cc1F` [Example 17, 4-(6-(4-aminopiperidin-1-yl)-4-hydroxy-3-(imidazolo[1,2-a]pyridin-7-yl)pyridin-2-yl)-2-fluorobenzonitrile hydrochloride], the IC50 at LSD1 is 19.4 nM; with NCI-H1417 cells, greater than 1000 nM.

For `COc1ccc(-c2cnc(N3CCC(N)C(F)C3)c(C#N)c2-c2ccc(C#N)c(F)c2)cc1O` (centres unmarked) [Example 77, 2-(4-amino-3-fluoropiperidin-1-yl)-4-(4-cyano-3-fluorophenyl)-5-(3-hydroxy-4-methoxyphenyl) nicotinonitrile], the IC50 on LSD1 amounted to 2.4 ± 0.9 nM; with NCI-H1417 cells, 2.19 nM.

Regarding `Cc1noc2cc(-c3c(-c4ccc(C#N)c(F)c4)nc(N4CCC(N)CC4)c4[nH]ncc34)c(F)cc12` [Example 288, 4-(7-(4-aminopiperidin-1-yl)-4-(5-fluoro-3-methylbenzo[d]isoxazol-6-yl)-1H-pyrazole[3,4-c]pyridin-5-yl)-2-fluorobenzonitrile hydrochloride], the IC50 on LSD1 turned out to be 0.591 nM; in the experiment on NCI-H1417 cells, 6.33 nM.

In the case of `COc1ccc(-c2cnc(N3CCC(N)CC3)c(C#N)c2-c2ccc(C#N)c(F)c2)cc1F` [Example 68, 2-(4-aminopiperidin-1-yl)-4-(4-cyano-3-fluorophenyl)-5-(3-fluoro-4-methoxyphenyl) nicotinonitrile hydrochloride], the IC50 stood at 3.4 ± 1.3 nM on LSD1 and 6.92 nM in the experiment on NCI-H1417 cells.

On to `COc1ccc(-c2c(C(N)=O)nc(N3CCC(N)CC3)nc2-c2ccc(C#N)c(F)c2)cc1F` [Example 110, 2-(4-aminopiperidin-1-yl)-6-(4-cyano-3-fluorophenyl)-5-(3-fluoro-4-methoxyphenyl)pyrimidine-4-carboxamide hydrochloride], for which the IC50 at LSD1 worked out at 3.2 ± 0.37 nM; in the experiment with NCI-H1417 cells it was 42.6 nM.

In the case of `COc1ccc(-c2cnc(N3CCC(N)CC3)c(C#N)c2-c2ccc(C#N)c(F)c2)cc1` [Example 69, 2-(4-aminopiperidin-1-yl)-4-(4-cyano-3-fluorophenyl)-5-(4-methoxyphenyl) nicotinonitrile hydrochloride], the IC50 on LSD1 was 3.9 ± 2.7 nM; in the experiment on NCI-H1417 cells, 8.41 nM.

In the case of `Cc1ccc(-c2c(-c3ccc(C#N)c(F)c3)nc(N3CC4CC(C3)C4N)n3ccnc23)cc1O` (centres unmarked) [Example 165, 4-(5-(6-amino-3-azabicyclo [3.1.1]heptane-3-yl)-8-(3-hydroxy-4-methylphenyl)imidazolo[1,2-c]pyrimidin-7-yl)-2-fluorobenzonitrile], the IC50 is 3.4 ± 1.5 nM on LSD1 and 4.68 nM in the experiment on NCI-H1417 cells.

For `Cc1ccc(-c2c(-c3ccc(C#N)cc3)cc3c(N4CCC[C@@H](N)C4)nncn23)cc1` [Example 4, (R)-4-(1-(3-aminopiperidin-1-yl)-6-(p-tolyl)pyrrolo[1,2-d] [1,2,4]triazine-7-yl)benzonitrile], the IC50 was determined as 2.3 ± 0.74 nM at LSD1 and 30.4 nM in the experiment with NCI-H1417 cells.

Consider `CC1(N)CCN(c2nc(-c3ccc(C#N)c(F)c3)c(-c3ccc(OC(F)(F)F)c(O)c3)c3nccn23)CC1` [Example 152, 4-(5-(4-amino-4-methylpiperidin-1-yl)-8-(3-hydroxy-4-(trifluoromethoxy)phenyl)imidazolo [1,2-c]pyrimidin-7-yl)-2-fluorobenzonitrile], for which the IC50 was determined as 23.5 nM on LSD1 and 12.4 nM in the experiment with NCI-H1417 cells.

Turning to `N#Cc1ccc(-c2cc(C(=O)N3C4CCC3CC(N)C4)sc2-c2ccccn2)cc1F` (centres unmarked) [Example 201, 4-(5-(3-amino-8-azabicyclo [3.2.1]octane-8-carbonyl)-2-(pyridin-2-yl)thiophen-3-yl)-2-fluorobenzonitrile Hydrochloride], the IC50 is 26.8 nM at LSD1 and 384 nM in the experiment with NCI-H1417 cells.

As to `COc1ccc(-c2c(O)cc(N3CCC(N)CC3)nc2-c2ccc(C#N)c(F)c2)cc1N` [Example 44], the IC50 was 12.8 ± 4.6 nM at LSD1 and 28.9 nM with NCI-H1417 cells.

Regarding `Cn1cc2cc(-c3cnc(N4CCC(N)CC4)c(C#N)c3-c3ccc(C#N)c(F)c3)ccc2n1` [Example 84, 2-(4-aminopiperidin-1-yl)-4-(4-cyano-3-fluorophenyl)-5-(2-methyl-2H-indazol-5-yl) nicotinonitrile hydrochloride], the IC50 at LSD1 stood at 2.18 nM; with NCI-H1417 cells it was 4.91 nM.

As to `COc1ccc(-c2sc(N3CCC(N)CC3)nc2-c2ccc(C#N)c(F)c2)cc1O` [Example 223, 4-(2-(4-aminopiperidin-1-yl)-5-(3-hydroxy-4-methoxyphenyl)thiazol-4-yl)-2-fluorobenzonitrile], the values for the IC50 at LSD1 and in the experiment with NCI-H1417 cells were 0.1 ± 0.03 nM and 2.39 nM, respectively.

Consider `N#Cc1ccc(-c2nc(N3CCC(N)CC3)cc(O)c2-c2ccc(Cl)c(O)c2)cc1F` [Example 59, 4-(6-(4-aminopiperidin-1-yl)-3-(4-chloro-3-hydroxyphenyl)-4-hydroxypyridin-2-yl)-2-fluorobenzonitrile], for which the IC50 is 0.7 ± 0.3 nM at LSD1 and 2.35 nM in the experiment on NCI-H1417 cells.

Consider `COc1ccc(-c2c(O)cc(N3C4CCC3CC(N)C4)nc2-c2ccc(C#N)c(F)c2)cc1F` (centres unmarked) [Example 14, 4-(6-(3-amino-8-azabicyclo[3.2.1]octane-8-yl)-3-(3-fluoro-4-methoxyphenyl)-4-hydroxypyridin-2-yl)-2-fluorobenzonitrile], for which the IC50 on LSD1 turned out to be 13.8 nM; in the experiment on NCI-H1417 cells it was 64.9 nM.

Turning to `COc1cc(N2CCC(N)CC2)nc(-c2ccc(C#N)c(F)c2)c1-c1ccc(F)c(O)c1` [Example 91, 4-(6-(4-aminopiperidin-1-yl)-3-(4-fluoro-3-hydroxyphenyl)-4-methoxypyridin-2-yl)-2-fluorobenzonitrile], the IC50 came out at 1.1 ± 0.3 nM at LSD1 and 1.82 nM in the experiment with NCI-H1417 cells.

As to `O=C(O)C1CCN(C(=O)c2cc(CN[C@@H]3C[C@H]3c3ccc(F)cc3)nc(-c3ccc(-n4cccn4)cc3)n2)CC1` [Example 234], the IC50 was 165 ± 8 nM on LSD1 and 31 ± 8 nM in the experiment on NCI-H1417 cells.

Take `N#Cc1ccc(-c2nc(N3C4CCC3CC(N)C4)n3ccnc3c2-c2cc3[nH]ncc3cc2F)cc1F` (centres unmarked) [Example 173, 4-(5-(3-amino-8-azabicyclo[3.2.1]octane-8-yl)-8-(5-fluoro-1H-indazole-6-yl)imidazolo[1,2-c]pyrimidin-7-yl)-2-fluorobenzonitrile hydrochloride]: the IC50 on LSD1 amounted to 0.8 ± 0.2 nM; with NCI-H1417 cells it was 8.15 nM.

For the compound `COc1ccc(-c2c(O)cc(N3CCC(N)CC3)nc2-c2ccc(C#N)c(F)c2)c(F)c1F` [Example 35, 4-(6-(4-aminopiperidin-1-yl)-3-(2,3-difluoro-4-methoxyphenyl)-4-hydroxypyridin-2-yl)-2-fluorobenzonitrile], the IC50 on LSD1 is 35.7 nM; in the experiment with NCI-H1417 cells, 31.8 nM.

As for `COc1ccc(-c2c(-c3ccc(C#N)c(F)c3)nc(N3CCC(N)CC3)c3nc[nH]c23)cc1F` [Example 270, 4-(4-(4-aminopiperidin-1-yl)-7-(3-fluoro-4-methoxyphenyl)-1H-imidazolo[4,5-c]pyridin-6-yl)-2-fluorobenzonitrile hydrochloride], the IC50 turned out to be 10.1 nM on LSD1 and 8.64 nM in the experiment with NCI-H1417 cells.

Turning to `COc1ccc(-c2c(-c3ccc(C#N)c(F)c3)nc(N3CCC(C)(N)CC3)n3ccnc23)cc1O` [Example 143, 4-(5-(4-amino-4-methylpiperidin-1-yl)-8-(3-hydroxy-4-methoxyphenyl)imidazolo[1,2-c]pyrimidin-7-yl)-2-fluorobenzonitrile], the IC50 turned out to be 5.5 ± 2.9 nM at LSD1 and 4.82 nM with NCI-H1417 cells.

As for `N#Cc1ccc(-c2nc(N3C4CCC3CC(N)C4)n3ccnc3c2-c2ccc(Cl)c(O)c2)cc1F` (centres unmarked) [Example 158, 4-(5-(3-amino-8-azabicyclo[3.2.1]octane-8-yl)-8-(4-chloro-3-hydroxyphenyl)imidazolo[1,2-c]pyrimidin-7-yl)-2-fluorobenzonitrile hydrochloride], the results for the IC50 on LSD1 and in the experiment with NCI-H1417 cells were 0.2 ± 0.2 nM and 0.763 nM, respectively.

Turning to `N#Cc1ccc(-c2nc(N3CCC(N)CC3)cc(O)c2-c2ccc(OC(F)(F)F)c(F)c2)cc1F` [Example 18, 4-(6-(4-aminopiperidin-1-y)-3-(3-fluoro-4-(trifluoromethoxy)phenyl)-4-hydroxypyridin-2-yl)-2-fluorobenzonitrile], the IC50 came to 78.3 nM on LSD1 and 87.2 nM with NCI-H1417 cells.

In the case of `Cc1ccc(-c2c(-c3ccc(C#N)c(F)c3)nc(N3CC4CCC(C3)C4N)n3ccnc23)cc1O` (centres unmarked) [Example 159, 4-(5-(8-amino-3-azabicyclo[3. 2.1]octane-3-yl)-8-(3-hydroxy-4-methylphenyl)imidazolo[1,2-c]pyrimidin-7-yl)-2-fluorobenzonitrile], the results for the IC50 on LSD1 and in the experiment with NCI-H1417 cells were 2.8 ± 1 nM and 5.82 nM, respectively.
